Measured values as given in patent publication US5194645A, “Trans-Pt (IV) compounds” (Johnson Matthey Public Limited Company, priority 1991, dated 1993).

How the values were obtained:
Adj/PC6 = assay: In vivo Adj/PC6 tumour test in mice (LD50, ED90, therapeutic index)
Protocol: The Adj/PC6 testing was carried out as described by P M Goddard et al presented in Sixth NCI-EORTC Symposium on New Drugs in Cancer Therapy 1989, which is a development of the basic method described by T A Connors et al, Chem Biol Interact 5, 415(1972). The in vivo L1210 tests were conducted according to the NCI protocol, Cancer Chemotherapy Reports, Part 3, vol 2, (Sept 1972) except that the animals used were DBA/2 mice and that dosing was carried out on days 1, 5 and 9. The animals were sacrificed when moribund. The compounds were administered parenterally (ip).
In the Adj/PC6 testing, LD50 and ED90 values in mg/kg body weight were determined in the conventional manner. The therapeutic index (TI) was calculated as the ratio of LD50 to ED90, and the results are shown below.
Additional tests were carried out in vivo using the compound of Example 2, against sensitive Adj/PC6 tumour cell lines, and against tumour cell lines resistant to various platinum anti-tumour agents, and a TI (Therapeutic Index) calculated, as described above.

Adj/PC6/cisplatin res = assay: In vivo Adj/PC6 cisplatin-resistant tumour test in mice
Protocol: (§1) The animals were sacrificed when moribund. The compounds were administered parenterally (ip).

Adj/PC6/iproplatin res = assay: In vivo Adj/PC6 iproplatin-resistant tumour test in mice
Protocol: as §1

Adj/PC6/tetraplatin res = assay: In vivo Adj/PC6 tetraplatin-resistant tumour test in mice; design: key to ED90: --: indicates 90% inhibition not achieved for doses up to LD50
Protocol: as §1

L1210 = assay: In vivo L1210 leukemia, increase in life span; conditions: 9 mg/kg, ip, days 1, 5 and 9, DBA/2 mice
Protocol: as §1
(§2) The compound of Example 2 was tested against L1210 leukemia, and also against a strain of L1210 resistant to cisplatin, in mice, and the increase in life span (ILS) determined against control mice not being administered any active compound, according to the equation, [formula] where T=days survival of treated mice and
(§3) C=days survival of control mice

Resistant L1210 = assay: In vivo cisplatin-resistant L1210 leukemia, increase in life span; conditions: 9 mg/kg, ip, days 1, 5 and 9, DBA/2 mice, L1210 resistant to cisplatin
Protocol: as §1, §2, §3

HX62 = assay: In vitro cytotoxicity (SRB), HX62; assay type: cell-based, human; conditions: HX62, ovarian cancer, 48 to 96 hours
Protocol: (§4) Additional in vitro biological testing was conducted using cell lines derived from human carcinomas and maintained at the Institute of Cancer Research, Sutton, England (see C A Hills & colleagues, Br J Cancer 59, 527-34 (1989)). Monolayer cells were trypsinized and seeded in 96-well microtiter plates at a density of 1×10^4 cells/well in 200 μl of growth medium. Cells were incubated overnight and test compounds were added to triplicate wells at various concentrations for a total of 48 to 96 hours. For toxicity analysis after drug exposure, the cells were fixed with trichloroacetic acid and stained for cellular protein content by incubation for 30 minutes with 0.4% (wt/vol) sulforodamine B (SRB) dissolved in 1% acetic acid. The unbound dye was removed by 1% acetic acid washes, and the bound dye was extracted with 10 mM Tris buffer. The amount of dye in solution was quantified by absorbance at 564 nm.
(§5) In the Tables A and B below, all the cells are ovarian cancer cells with the exception of GCT27^R /GCT27 which are testicular. Table A gives IC50 values in μM; Table B gives Resistance Factors as a ratio of IC50 for a cell line bred to be resistant to cisplatin against IC50 for the nonresistant cell line.

SKOV-3 = assay: In vitro cytotoxicity (SRB), SKOV-3; assay type: cell-based, human; conditions: SKOV-3, ovarian cancer, 48 to 96 hours
Protocol: as §4, §5

PXN/94 = assay: In vitro cytotoxicity (SRB), PXN/94; assay type: cell-based, human; conditions: PXN/94, ovarian cancer, 48 to 96 hours
Protocol: as §4, §5

41M ® = assay: In vitro cytotoxicity (SRB), 41M ®; assay type: cell-based, human; conditions: 41M ® (cisplatin resistant), ovarian cancer, 48 to 96 hours
Protocol: as §4, §5

41M = assay: In vitro cytotoxicity (SRB), 41M; assay type: cell-based, human; conditions: ovarian cancer, 48 to 96 hours
Protocol: as §4, §5

CHI ® = assay: In vitro cytotoxicity (SRB), CHI ®; assay type: cell-based, human; conditions: CHI ® (cisplatin resistant), ovarian cancer, 48 to 96 hours
Protocol: as §4, §5

CHI = assay: In vitro cytotoxicity (SRB), CHI; assay type: cell-based, human; conditions: ovarian cancer, 48 to 96 hours
Protocol: as §4, §5

41M ®/41M = assay: Resistance factor 41M ®/41M; assay type: cell-based, human; conditions: ratio of IC50 resistant to nonresistant line, ovarian
Protocol: as §4, §5

CHI ®/CHI = assay: Resistance factor CHI ®/CHI; assay type: cell-based, human; conditions: ratio of IC50 resistant to nonresistant line, ovarian
Protocol: as §4, §5

A2780 ®/A2780 = assay: Resistance factor A2780 ®/A2780; assay type: cell-based, human; conditions: ratio of IC50 resistant to nonresistant line, ovarian
Protocol: as §4, §5

GCT27 ®/GCT27 = assay: Resistance factor GCT27 ®/GCT27; assay type: cell-based, human; conditions: ratio of IC50 resistant to nonresistant line, testicular
Protocol: as §4, §5

OVCAR-3 [1] = assay: In vivo OVCAR-3 ovarian carcinoma xenograft; design: species or system mice; conditions: for Growth Delay: delay in doubling of tumour volume vs control
Protocol: The "growth delay" was also measured which represents the delay in achieving a doubling of the tumour volume for the treated group compared to the control group.

OVCAR-3 [2] = assay: In vivo OVCAR-3 ovarian carcinoma xenograft; design: species or system mice; conditions: tumour volume vs control
[3] = Adj/PC6, comparison with cis-isomer

`[NH2][Pt]([OH])([OH])([Cl])([Cl])[NH]C1CCCCC1` [EX 2, trans-[PtCl2 (OH)2 (NH3)(c-C6H11 NH2)]] was tested, and the ED90 (Adj/PC6; [3]) was 0.76 mg/kg, the “TI (Therapeutic Index)” value (Adj/PC6; [3]) was 11.6 and the ED90 (Adj/PC6; Adj/PC6 testing, mice, ip) was 0.76 mg/kg body weight. The LD50 (Adj/PC6; Adj/PC6 testing, mice, ip) was 8.8 mg/kg body weight, the “TI (therapeutic index, ratio of LD50 to ED90)” value (Adj/PC6; Adj/PC6 testing, mice, ip) was 11.6 and the “activity compared with the cis isomer” value (Adj/PC6; sensitive and platinum-resistant Adj/PC6 tumours) was “possesses activity, and a different spectrum of activity to the cis isomer”. The ED90 (Adj/PC6/cisplatin res) was 5.6 mg/kg, the LD50 (Adj/PC6/cisplatin res) was 10.5 mg/kg and the “TI (Therapeutic Index)” value (Adj/PC6/cisplatin res) was 1.88. The ED90 (Adj/PC6/iproplatin res) was 2.6 mg/kg, the LD50 (Adj/PC6/iproplatin res) was 8.8 mg/kg and the “TI (Therapeutic Index)” value (Adj/PC6/iproplatin res) was 3.4. The ED90 (Adj/PC6/tetraplatin res) was “--”, the LD50 (Adj/PC6/tetraplatin res) was 8.8 mg/kg and the “ILS (increase in life span)” value (L1210) was 77%. The “ILS (increase in life span)” value (Resistant L1210) was 39%, the IC50 (HX62) was 5900 nM and the IC50 (SKOV-3) was 8800 nM. It also gave an IC50 (PXN/94) of 3700 nM, an IC50 (41M ®) of 1800 nM and an IC50 (41M) of 1500 nM. For the same compound, the IC50 (CHI ®) was 2200 nM, the IC50 (CHI) was 1400 nM and the “Resistance Factor 41M ®/41M” value (41M ®/41M) was 1.2. For the same compound, the “Resistance Factor CHI ®/CHI” value (CHI ®/CHI) was 1.6, the “Resistance Factor A2780 ®/A2780” value (A2780 ®/A2780) was 7.1 and the “Resistance Factor GCT27 ®/GCT27” value (GCT27 ®/GCT27) was 1.8. For the same compound, the “Growth Delay” value (OVCAR-3 [1]; 1 mg/kg) was 0.9 days, the “Growth Delay” value (OVCAR-3 [1]; 2 mg/kg) was 12.0 days and the “Growth Delay” value (OVCAR-3 [1]; 4 mg/kg) was 16.8 days. For the same compound, the “dose-related effect (OVCAR-3 xenograft)” value (OVCAR-3 [1]; increasing doses) was “clear dose-related effect”, the “T/C (day 28)” value (OVCAR-3 [2]; 1 mg/kg) was 0.80 and the “T/C (day 28)” value (OVCAR-3 [2]; 2 mg/kg) was 0.64. The “T/C (day 28)” value (OVCAR-3 [2]; 4 mg/kg) was 0.48.
